Source: ChEMBL document CHEMBL2016551, “Synthesis and SAR studies of novel heteroaryl fused tetracyclic indole-diamide compounds: potent allosteric inhibitors of the hepatitis C virus NS5B polymerase” (Bioorg Med Chem Lett, 2012)

Assays:
[1] = test system: Hepatitis C virus; assay: Antiviral activity against Hepatitis C virus genotype 1a infected in human HuH7 cells by luciferase reporter gene analysis; format: functional, organism-based, Hepacivirus hominis; settings: subtype 1a, Huh-7
[2] = Inhibition of Hepatitis C virus NS5B RNA-dependent RNA polymerase; design: species or system Hepacivirus hominis
[3] = biological target: RNA-directed RNA polymerase (Hepacivirus hominis, UniProt O39930, P495L); assay: Inhibition of Hepatitis C virus NS5B RNA-dependent RNA polymerase P495L mutant
Sequence of RNA-directed RNA polymerase (O39930 entry or part of it P495L): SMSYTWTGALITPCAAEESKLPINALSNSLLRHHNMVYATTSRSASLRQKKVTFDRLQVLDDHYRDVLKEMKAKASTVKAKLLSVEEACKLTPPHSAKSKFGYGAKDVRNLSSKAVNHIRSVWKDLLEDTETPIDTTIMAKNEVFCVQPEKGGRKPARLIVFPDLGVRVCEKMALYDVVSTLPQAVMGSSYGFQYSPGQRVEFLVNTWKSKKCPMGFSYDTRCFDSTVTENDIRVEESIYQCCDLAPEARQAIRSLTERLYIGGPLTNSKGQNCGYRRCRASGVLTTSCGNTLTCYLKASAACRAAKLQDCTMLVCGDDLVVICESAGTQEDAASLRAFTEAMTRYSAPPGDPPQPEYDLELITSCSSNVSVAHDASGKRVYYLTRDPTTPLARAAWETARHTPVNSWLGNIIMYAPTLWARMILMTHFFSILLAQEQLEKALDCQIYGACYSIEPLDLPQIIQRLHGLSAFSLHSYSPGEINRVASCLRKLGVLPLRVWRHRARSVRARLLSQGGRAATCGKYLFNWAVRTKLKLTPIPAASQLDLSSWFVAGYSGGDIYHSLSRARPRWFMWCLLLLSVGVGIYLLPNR

[4] = test system: Hepatitis C virus; assay: Antiviral activity against Hepatitis C virus genotype 1b infected in human HuH7 cells by luciferase reporter gene analysis; format: functional, organism-based, Hepacivirus hominis; settings: Huh-7
[5] = Oral bioavailability in rat; format: ADME, organism-based; settings: in vivo
[6] = Half life in rat at 2 mg/kg, iv; format: ADME, organism-based; design: dose 2 mg/kg, route intravenous; settings: in vivo
[7] = Cytotoxicity against human HuH7 cells; format: cell-based; settings: Huh-7 cells
[8] = AUC in rat; format: ADME, organism-based; settings: plasma
[9] = Clearance in rat at 2 mg/kg, iv; format: ADME, organism-based; design: dose 2 mg/kg, route intravenous; settings: in vivo

| SMILES | EC50 [1] | IC50 [2] | IC50 [3] | EC50 [4] | bioavailability [5] | half-life [6] | CC50 [7] | AUC [8] | clearance [9] |
| --- | --- | --- | --- | --- | --- | --- | --- | --- | --- |
| O=C(O)/C=C/c1ccc(NC(=O)C2(NC(=O)c3ccc4c(C5CCCCC5)c5n(c4c3)CCOc3ncccc3-5)CCCC2)cc1 | 28 nM | 14 nM | 2800 nM | 21 nM | – | – | – | – | – |
| O=C(O)/C=C/c1ccc(NC(=O)C2(NC(=O)c3ccc4c(C5CCCCC5)c5n(c4c3)CCCc3nc[nH]c3-5)CCCC2)cc1 | 2510 nM | 228 nM | – | 738 nM | – | – | – | – | – |
| O=C(O)/C=C/c1ccc(NC(=O)C2(NC(=O)c3ccc4c(C5CCCCC5)c5n(c4c3)CCCc3nccnc3-5)CCCC2)cc1 | 89 nM | 24 nM | 2280 nM | 24 nM | – | – | – | – | – |
| O=C(O)/C=C/c1ccc(NC(=O)C2(NC(=O)c3ccc4c(C5CCCCC5)c5n(c4c3)CCCc3ncccc3-5)CCCC2)cc1 | 35 nM | 30 nM | 1730 nM | 9 nM | 4% | 1 h | 63000 nM | 1.7 µM·h | 7.2 mL/min/kg |
| O=C(O)/C=C/c1ccc(NC(=O)C2(NC(=O)c3ccc4c(C5CCCCC5)c5n(c4c3)CCCc3ocnc3-5)CCCC2)cc1 | 380 nM | 44 nM | 5850 nM | 78 nM | – | – | – | – | – |
| O=C(O)/C=C/c1ccc(NC(=O)C2(NC(=O)c3ccc4c(C5CCCCC5)c5n(c4c3)CCCc3occc3-5)CCCC2)cc1 | – | 34 nM | 3720 nM | < 69 nM | – | – | – | – | – |
| O=C(O)/C=C/c1ccc(NC(=O)C2(NC(=O)c3ccc4c(C5CCCCC5)c5n(c4c3)CCCc3ccccc3-5)CCCC2)cc1 | 71 nM | 34 nM | 3390 nM | 14 nM | – | – | 30000 nM | – | – |
| O=C(O)/C=C/c1ccc(NC(=O)C2(NC(=O)c3ccc4c(C5CCCCC5)c5n(c4c3)CC(=O)Nc3cccnc3-5)CCCC2)cc1 | 39 nM | 24 nM | 3100 nM | 12 nM | < 1% | – | 45000 nM | – | 8.7 mL/min/kg |
| Cc1nc2c(s1)CCCn1c-2c(C2CCCCC2)c2ccc(C(=O)NC3(C(=O)Nc4ccc(/C=C/C(=O)O)cc4)CCCC3)cc21 | 4190 nM | 108 nM | 5100 nM | 683 nM | – | – | – | – | – |
| O=C(O)/C=C/c1ccc(NC(=O)C2(NC(=O)c3ccc4c(C5CCCCC5)c5n(c4c3)CCOc3cccnc3-5)CCCC2)cc1 | 157 nM | 15 nM | > 600 nM | 22 nM | – | – | – | – | – |
| Nc1nc2c(s1)CCCn1c-2c(C2CCCCC2)c2ccc(C(=O)NC3(C(=O)Nc4ccc(/C=C/C(=O)O)cc4)CCCC3)cc21 | 3780 nM | 250 nM | 4840 nM | 1810 nM | – | – | – | – | – |
